Measurements as given in patent US6743789B2, “Substituted imidazo[1,5-a][1,2,4]triazolo[4,3-d][1,4]benzodiazepine derivatives” (Hoffmann-La Roche Inc., priority 2000, dated 2004).
Where a name gives a salt, the structure may show the parent alone. Read-outs that look alike come from different tables or passages of the source.

Key:
[1] = molecular target: T1, rat GABA A receptor α3β3γ2 (Rattus norvegicus, UniProt P18508+P20236); assay: [3H]flumazenil competition binding, GABA A α3β3γ2
T1 construct: expressed in transfected cells; host or cells: SF9 insect cells
Protocol: (§1) The affinity of compounds at GABA A receptor subtypes was measured by competition for [^3H]flumazenil (85 Ci/mmol; Amersham) binding to SF9 cells expressing rat receptors of composition α1β3γ2, α2β3γ2, α3β3γ2 and α5β3γ2.
(§2) Cellpellets were suspended in Krebs-tris buffer (4.8 mM KCl, 1.2 mM CaCl2, 1.2 mM MgCl2, 120 mM NaCl, 15 mM Tris; pH 7.5; binding assay buffer), homogenized by polytron for ca. 15 sec on ice and centrifuged in UZ for 30 min at 4° C. (100000 g; rotor: TFT 4594=300000 rpm). The cellpellets were resuspended in Krebs-tris buffer and homogenized by polytron for ca. 15 sec on ice. Aliquots of 1 ml were prepared, protein was measured (Bradford method) and the resulting membrane aliquots were stored at −70° C.
(§3) Radioligand binding assays were carried out in a volume of 200 μL (96-well plates) which contained 100 μL of cells, [^3H]flumazenil at a concentration of 1 nM for α1α2α3 subunits and 0.5 nM for α5 subunits and the test compound in the range of
(§4) 10^−10−3×10^−6 M. Nonspecific binding was defined by 10^−5 M diazepam and typically represented less than 5% of the total binding. Assays were incubated to equilibrium for 1 hour at 4° C. and harvested onto GF/C uni-filters (Packard) by filtration using a Packard harvester and washing with ice-cold wash buffer (50 mM Tris; pH 7.5). After drying, filter-retained radioactivity was detected by liquid scintillation counting. Ki values were calculated using Excel-Fit (Microsoft) and are the means of two determinations.

[2] = molecular target: T2, rat GABA A receptor α1β3γ2 (Rattus norvegicus, UniProt P18508+P62813); assay: [3H]flumazenil competition binding, GABA A α1β3γ2
T2 construct: expressed in transfected cells; host or cells: SF9 insect cells
Protocol: as §1, §2, §3, §4

[3] = molecular target: T3, rat GABA A receptor α5β3γ2 (Rattus norvegicus, UniProt P18508+P19969); assay: [3H]flumazenil competition binding, GABA A α5β3γ2
T3 construct: expressed in transfected cells; host or cells: SF9 insect cells
Protocol: as §1, §2, §3, §4

[4] = molecular target: T4, rat GABA A receptor α2β3γ2 (Rattus norvegicus, UniProt P18508+P23576); assay: [3H]flumazenil competition binding, GABA A α2β3γ2
T4 construct: expressed in transfected cells; host or cells: SF9 insect cells
Protocol: as §1, §2, §3, §4

[5] = in vivo; cited from earlier work
[6] = McNamara and Skelton, Psychobiology 21:101-108; cited from earlier work
[7] = [3H]flumazenil 1 nM, SF9 cells expressing rat α3β3γ2, mean of two determinations, read-out: Ki[nM] ra3
[8] = [3H]flumazenil 1 nM, SF9 cells expressing rat α1β3γ2, mean of two determinations, read-out: Ki[nM] ra1
[9] = [3H]flumazenil 0.5 nM, SF9 cells expressing rat α5β3γ2, mean of two determinations, read-out: Ki[nM] ra5
[10] = [3H]flumazenil 1 nM, SF9 cells expressing rat α2β3γ2, mean of two determinations, read-out: Ki[nM] ra2

| Molecule | Ki [1, 7] | Ki [2, 8] | Ki [3, 9] | Ki [4, 10] | melting point | Ki [1] | Ki [2] | Ki [4] | Ki [3] | proconvulsant or convulsant activity [5] | spatial learning in the Morris watermaze [6] |
| --- | --- | --- | --- | --- | --- | --- | --- | --- | --- | --- | --- |
| 3-Chloro-10-(5-cyclopropyl-1,2,4-oxadiazol-3-yl)-7-(1H-indol-3-ylmethyl)-9H-imidazo[1,5-a][1,2,4]triazolo[4,3-d][1,4]benzodiazepine [Example 61] | 18.9 nM | 67.3 nM | 1.3 nM | 53 nM | – | – | – | – | – | – | – |
| CCOC(=O)c1ncn2c1Cn1c(Cc3ccncc3)nnc1-c1cc(Cl)ccc1-2 (as salt: hydrochloride) [Example 69, Ethyl 3-chloro-7-(pyridin-4-ylmethyl)-9H-imidazo[1,5-a][1,2,4]triazolo[4,3-d][1,4]-benzodiazepine-10-carboxylate] | – | – | – | – | 213 °C | – | – | – | – | – | – |
| CCOC(=O)c1ncn2c1Cn1cnnc1-c1cc(OC)ccc1-2 [Example 1, Ethyl 3-methoxy-9H-imidazo[1,5-a][1,2,4]triazolo[4,3-d][1,4]-benzodiazepine-10-carboxylate] | – | – | 1.3 nM | – | 197 °C | 39.2 nM | 30.6 nM | 57.6 nM | – | – | – |
| Cc1ccc2c(c1)-c1nncn1Cc1c(-c3nc(C4CC4)no3)ncn1-2 [Example 6, 10-(3-Cyclopropyl-1,2,4-oxadiazol-5-yl)-3-methyl-9H-imidazo[1,5-a][1,2,4]triazolo[4,3-d][1,4]benzodiazepine] | 149 nM | 408 nM | – | 362 nM | 253 to 256 °C | – | – | – | 10.8 nM | – | – |
| CCOC(=O)c1ncn2c1Cn1cnnc1-c1cc(Cl)ccc1-2 [Example 13, Ethyl 3-chloro-9H-imidazo[1,5-a][1,2,4]triazolo[4,3-d][1,4]benzodiazepine-10-carboxylate] | – | – | 1.2 nM | – | 226 to 227 °C | 23.7 nM | 34.9 nM | 55.5 nM | – | – | – |
| CCOC(=O)c1ncn2c1Cn1c(C)nnc1-c1cc(OC)ccc1-2 [Example 19, Ethyl 3-methoxy-7-methyl-9H-imidazo[1,5-a][1,2,4]triazolo[4,3-d][1,4]-benzodiazepine-10-carboxylate] | – | – | 14.5 nM | – | 210 °C | 482 nM | 481 nM | 500 nM | – | – | – |
| CCOC(=O)c1ncn2c1Cn1c(CO)nnc1-c1cc(OC)ccc1-2 [Example 25, Ethyl 7-hydroxymethyl-3-methoxy-9H-imidazo[1,5-a][1,2,4]triazolo[4,3-d][1,4]-benzodiazepine-10-carboxylate] | 107 nM | – | – | 123 nM | 255 °C | – | 95.3 nM | – | 5.9 nM | – | – |
| CCOC(=O)c1ncn2c1Cn1c(Cc3c[nH]c4c(OC)cccc34)nnc1-c1cc(OC)ccc1-2 [Example 37, Ethyl 3-methoxy-7-[(7-methoxy-1H-indol-3-yl)methyl]-9H-imidazo[1,5-a][1,2,4]triazolo[4,3-d][1,4]-benzodiazepine-10-carboxylate] | 162 nM | 296 nM | 8.2 nM | 266 nM | – | – | – | – | – | – | – |
| CCOC(=O)c1ncn2c1Cn1c(Cc3c[nH]c4ccccc34)nnc1-c1cc(Br)ccc1-2 [Example 47, Ethyl 3-bromo-7-(1H-indol-3-ylmethyl)-9H-imidazo[1,5-a][1,2,4]triazolo[4,3-d][1,4]-benzodiazepine-10-carboxylate] | 100 nM | 694 nM | – | 225 nM | 258 °C (dec.) | – | – | – | 13.1 nM | – | – |
| CCOC(=O)c1ncn2c1Cn1c(Cc3cccc(OC)c3)nnc1-c1cc(Br)ccc1-2 [Example 50, Ethyl 3-bromo-7-(3-methoxy-benzyl)-9H-imidazo[1,5-a][1,2,4]triazolo[4,3-d][1,4]-benzodiazepine-10-carboxylate] | 220 nM | 1000 nM | – | 409 nM | 111 to 113 °C | – | – | – | 14.4 nM | – | – |
| CCOC(=O)c1ncn2c1Cn1c(Cc3ccc(-c4ccccc4)cc3)nnc1-c1cc(OC)ccc1-2 [Example 54, Ethyl 3-methoxy-7-[(biphenyl-4-yl)methyl]-9H-imidazo[1,5-a][1,2,4]triazolo[4,3-d][1,4]-benzodiazepine-10-carboxylate] | 108 nM | – | – | 148 nM | – | – | 64.6 nM | – | 12.9 nM | – | – |
| Clc1ccc2c(c1)-c1nnc(Cc3ccccc3)n1Cc1c(-c3noc(C4CC4)n3)ncn1-2 [Example 63, 7-Benzyl-3-chloro-10-(5-cyclopropyl-1,2,4-oxadiazol-3-yl)-9H-imidazo[1,5-a][1,2,4]triazolo[4,3-d][1,4]benzodiazepine] | – | – | 0.6 nM | – | – | 5.6 nM | 12.5 nM | 10.7 nM | – | – | – |
| CCOC(=O)c1ncn2c1Cn1c(Cc3ccncc3)nnc1-c1cc(Cl)ccc1-2 [Example 69, Ethyl 3-chloro-7-(pyridin-4-ylmethyl)-9H-imidazo[1,5-a][1,2,4]triazolo[4,3-d][1,4]-benzodiazepine-10-carboxylate] | 158 nM | 360 nM | – | 308 nM | – | – | – | – | 7 nM | – | – |
| COC(=O)c1cc2c(cn1)[nH]c1ccccc12 [β-CCM] | – | – | – | – | – | – | – | – | – | proconvulsant or convulsant | enhance spatial learning |
| Ethyl 3-methoxy-7-(1H-indol-3-ylmethyl)-9H-imidazo[1,5-a][1,2,4]triazolo[4,3-d][1,4]-benzodiazepine-10-carboxylate [Example 20] | 191 nM | 803 nM | 10.7 nM | 284 nM | – | – | – | – | – | – | – |
